Laboratory results reported in the NIST ThermoML archive (doi:10.1021/je800446c).
Numbers after ± are expanded uncertainties.

Conditions: 298.15 K; 101.33 kPa; Liquid; Pycnometric method

mass density	SMILES
805.85 ± 0.72 kg/m3	CCCCO [butan-1-ol]
802 ± 1 kg/m3	CCC(C)O (stereo unspecified) [butan-2-ol]
785.35 ± 0.71 kg/m3	CCO [ethanol]
786.57 ± 0.71 kg/m3	CO [methanol]
799.98 ± 0.72 kg/m3	CCCO [propan-1-ol]
781.35 ± 0.7 kg/m3	CC(C)O [propan-2-ol]
